Assay results taken from ChEMBL document CHEMBL1201862, “PubChem BioAssay data set” (2004).
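Following 48 hours of exposure in 96-well plates, responses at five concentrations were used to interpolate endpoints linearly. GI50 marks 50% less growth.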 Active and inactive are the calls of the source. Rule as the data show it: active = GI50 up to about 1.1 µM and inactive = higher.

What was measured:
Assay in all cases: NCI-60 cell line screen, 48 h
NCI-H23 = test system: NCI-H23
LXFL 529 = test system: LXFL 529
KM-20L2 = test system: KM-20L2
RXF 393 = test system: RXF 393
SNB-19 = test system: SNB-19
U-251 = test system: U-251
SNB-75 = test system: SNB-75
SR = test system: SR
SK-MEL-2 = test system: SK-MEL-2
OVCAR-8 = test system: OVCAR-8
HL-60 = test system: HL-60
Malme-3M = test system: Malme-3M
SW-620 = test system: SW-620
K562 = test system: K562
OVCAR-5 = test system: OVCAR-5
A498 = test system: A498
HOP-62 = test system: HOP-62
LOX IMVI = test system: LOX IMVI
CCRF-CEM = test system: CCRF-CEM
DLD-1 = test system: DLD-1
NCI-H522 = test system: NCI-H522
786-0 = test system: 786-0
ACHN = test system: ACHN
UACC-257 = test system: UACC-257
DMS-114 = test system: DMS-114
OVCAR-4 = test system: OVCAR-4
SNB-78 = test system: SNB-78
UO-31 = test system: UO-31
HOP-18 = test system: HOP-18
CAKI-1 = test system: CAKI-1
XF498 = test system: XF498
SK-MEL-28 = test system: SK-MEL-28
IGROV-1 = test system: IGROV-1
SF-539 = test system: SF-539
KM12 = test system: KM12
HCT-116 = test system: HCT-116
HOP-92 = test system: HOP-92
TK-10 = test system: TK-10
COLO 205 = test system: COLO 205
HCT-15 = test system: HCT-15
SK-MEL-5 = test system: SK-MEL-5
HCC 2998 = test system: HCC 2998
RPMI-8226 = test system: RPMI-8226
HT-29 = test system: HT-29
NCI-H226 = test system: NCI-H226
M14 = test system: M14
SF-268 = test system: SF-268
SF-295 = test system: SF-295
M19-MEL = test system: M19-MEL
SK-OV-3 = test system: SK-OV-3
MOLT-4 = test system: MOLT-4
A549 = test system: A549
SN12C = test system: SN12C
DMS-273 = test system: DMS-273
OVCAR-3 = test system: OVCAR-3
UACC-62 = test system: UACC-62
EKVX = test system: EKVX
NCI-H460 = test system: NCI-H460

`Cc1ccc(NC(=O)C(=O)Cc2cc[n+]([O-])cc2)cc1` was tested, and the GI50 (NCI-H23) was > 100 µM (inactive), the GI50 (LXFL 529) was > 100 µM (inactive) and the GI50 (KM-20L2) was > 100 µM (inactive). For the same molecule, the GI50 (RXF 393) was > 100 µM (inactive), the GI50 (SNB-19) was > 100 µM (inactive) and the GI50 (U-251) was > 100 µM (inactive). The GI50 (SNB-75) was > 100 µM (inactive), the GI50 (SR) was > 100 µM (inactive) and the GI50 (SK-MEL-2) was > 100 µM (inactive). For the same molecule, the GI50 (OVCAR-8) was > 100 µM (inactive), the GI50 (HL-60) was > 100 µM (inactive) and the GI50 (Malme-3M) was > 100 µM (inactive). For the same molecule, the GI50 (SW-620) was > 100 µM (inactive), the GI50 (K562) was > 100 µM (inactive) and the GI50 (OVCAR-5) was > 100 µM (inactive). The GI50 (A498) was > 100 µM (inactive), the GI50 (HOP-62) was > 100 µM (inactive) and the GI50 (LOX IMVI) was > 100 µM (inactive). The GI50 (CCRF-CEM) was > 100 µM (inactive), the GI50 (DLD-1) was > 100 µM (inactive) and the GI50 (NCI-H522) was > 100 µM (inactive). The GI50 (786-0) was > 100 µM (inactive), the GI50 (ACHN) was > 100 µM (inactive) and the GI50 (UACC-257) was > 100 µM (inactive). For the same molecule, the GI50 (DMS-114) was > 100 µM (inactive), the GI50 (OVCAR-4) was > 100 µM (inactive) and the GI50 (SNB-78) was > 100 µM (inactive). For the same molecule, the GI50 (UO-31) was > 100 µM (inactive), the GI50 (HOP-18) was > 100 µM (inactive) and the GI50 (CAKI-1) was > 100 µM (inactive). The GI50 (XF498) was > 100 µM (inactive), the GI50 (SK-MEL-28) was > 100 µM (inactive) and the GI50 (IGROV-1) was > 100 µM (inactive). The GI50 (SF-539) was > 100 µM (inactive), the GI50 (KM12) was > 100 µM (inactive) and the GI50 (HCT-116) was > 100 µM (inactive). For the same molecule, the GI50 (HOP-92) was > 100 µM (inactive), the GI50 (TK-10) was > 100 µM (inactive) and the GI50 (COLO 205) was > 100 µM (inactive). For the same molecule, the GI50 (HCT-15) was > 100 µM, the GI50 (SK-MEL-5) was > 100 µM (inactive) and the GI50 (HCC 2998) was > 100 µM (inactive). For the same molecule, the GI50 (RPMI-8226) was > 100 µM (inactive), the GI50 (HT-29) was > 100 µM (inactive) and the GI50 (NCI-H226) was > 100 µM (inactive). The GI50 (M14) was > 100 µM (inactive), the GI50 (SF-268) was > 100 µM (inactive) and the GI50 (SF-295) was > 100 µM (inactive). The GI50 (M19-MEL) was > 100 µM (inactive), the GI50 (SK-OV-3) was > 100 µM (inactive) and the GI50 (MOLT-4) was > 100 µM (inactive). For the same molecule, the GI50 (A549) was > 100 µM (inactive), the GI50 (SN12C) was > 100 µM (inactive) and the GI50 (DMS-273) was > 100 µM (inactive). For the same molecule, the GI50 (OVCAR-3) was > 100 µM (inactive), the GI50 (UACC-62) was > 100 µM (inactive) and the GI50 (EKVX) was > 100 µM (inactive). For the same molecule, the GI50 (NCI-H460) was > 100 µM (inactive).
